From patent US20240409549A1, “NEW CRYSTAL FORM AND USE OF NITROGENOUS TRICYCLIC COMPOUND” (SUNSHINE LAKE PHARMA CO., LTD., priority 2021, published 2024)

How the values were obtained:
[1] = Stability experiment: photostability (lighting) test; type: physicochemical; settings: for Purity (%): HPLC; for Purity (%) / Appearance: Lighting, open light box with UV
From the text: (3) Photostability Test: A batch of the test sample was taken into a flat weighing bottle, divided into ≤5 mm thick thin layer. The sample was placed in an opened light box (with UV) at the illuminance […], UV light≥0.7 w/m^2 for 30 days. The sample was then sampled at day 5, day 13 and day 30, and the change of the sample's color was observed. The purity of the sample was detected by HPLC.

[2] = Pharmacokinetic experiment, oral capsules in Beagle dogs; type: in vivo; settings: male Beagle dogs, 5 mg/kg
Procedure: The crystal form of the compound having Formula (I) was filled into capsules, which were used for oral administration.
Three male Beagle dogs weighing 8-12 kg were orally administered with capsules containing the test sample at a dose of 5 mg/kg, and blood samples were taken at time points of 0.25 h, 0.5 h, 1.0 h, 2.0 h, 4.0 h, 6.0 h, 8.0 h and 24 h. Standard curve was plotted based on concentrations of the samples in a suitable range, the concentration of the test sample in the plasma sample was measured and quantified by AB SCIEX API4000 LC-MS/MS at MRM mode. Pharmacokinetic parameters were calculated according to drug concentration -time curve using a noncompartmental method by WinNonLin 6.3 software.

[3] = Hygroscopicity experiment (dynamic vapor sorption); type: physicochemical
Procedure: The hygroscopicity of the present invention is measured using the DVS INT-Std dynamic moisture and gas adsorption analyzer of the Surface Measurement Systems Company in UK. The humidity test range was 0%-95%, the air flow was 200 mL/min, the temperature was 25° C., test point: take one test point per […] 5% humidity.
An appropriate amount of the test sample was taken and the hygroscopicity of the test sample was tested by dynamic moisture adsorption device. The description of the hygroscopic characteristics and the definition of the hygroscopic weight gain (Appendix 9103 of Chinese Pharmacopoeia 2020 Edition, Guidelines for Drug Hygroscopicity Tests, experimental conditions: 25° C.±1° C., 80%±2% relative humidity) are described in the table below: […]

[4] = Stability experiment: high-humidity test; type: physicochemical; settings: for Purity (%): HPLC; for Purity (%) / Appearance: High-humidity 25° C., RH 90%±5%
Procedure: (2) High-humidity test: take a batch of the test sample into the flat weighing bottle, divided into ≤5 mm thick thin layer. The samples were sampled at 25° C. and RH for 90%±5% for 30 days. The samples were sampled at day 5, 13 and day 30, and the sample color was observed. The purity of the sample was determined by HPLC.

[5] = Stability experiment: high-temperature test; type: physicochemical; settings: for Purity (%): HPLC
Procedure: (1) High-temperature test: A batch of the test sample was taken into a flat weighing bottle, divided into ≤5 mm thick thin layer. The sample was placed at 60° C. for 30 days. The sample was then sampled at day 5, day 13 and day 30, and the change of the sample's color was observed. The purity of the sample was detected by HPLC.

[6] = High-temperature 60° C., day 13
[7] = High-temperature 60° C., day 30
[8] = day 0 (start, common to all conditions)

- Purity (%) ([1]; day 5): 99.88%
- Purity (%) ([1]; day 13): 99.59%
- Purity (%) ([1]; day 30): 99.83%
- Appearance ([1]; day 5): White
- Appearance ([1]; day 13): White
- Appearance ([1]; day 30): White
- crystal structure stability ([1]; lighting conditions): remains basically unchanged
- AUC(0-t) ([2]; dog, plasma): 1020 ng·h/mL
- Cmax ([2]; dog, plasma): 389 ng/mL
- Tmax [2]: 1.67 h
- hygroscopic weight gain ([3]; after equilibrium at relative humidity of 80%, 25° C.): less than 0.2%
- hygroscopic characteristics ([3]; relative humidity of 80%, criterion of Chinese Pharmacopoeia 2020 Appendix 9103): no or almost no hygroscopicity
- Purity (%) ([4]; day 5): 99.81%
- Purity (%) ([4]; day 13): 99.70%
- Purity (%) ([4]; day 30): 99.82%
- Appearance ([4]; day 5): White
- Appearance ([4]; day 13): White
- Appearance ([4]; day 30): White
- crystal structure stability ([4]; high humidity conditions): remains basically unchanged
- Purity (%) ([5]; High-temperature 60° C., day 5): 99.83%
- Purity (%) [5, 6]: 99.91%
- Purity (%) [5, 7]: 99.70%
- Purity (%) [5, 8]: 99.88%
- Appearance ([5]; High-temperature 60° C., day 5): White
- Appearance [5, 6]: White
- Appearance [5, 7]: White
- Appearance [5, 8]: White
- crystal structure stability ([5]; high temperature conditions): remains basically unchanged
SMILES: O=C(O)c1ccc2c(c1)Oc1ccc(OCc3c(-c4c(Cl)cccc4Cl)noc3C3CC3)nc1C1(CC1)C2 [Crystal form I, 2-((5-cyclopropyl-3-(2,6-dichlorophenyl)isoxazol-4-yl)methoxy)-10H-spiro[benzo[6,7]oxepino[3,2-b]pyridine-11,1′-cyclopropane]-7-carboxylic acid]
